Data set [1] is described as follows: 1-octanol/aqueous buffer distribution coefficient, logP of the compound at pH 7.4. Format: physicochemical.
For data set [2], the system named is Candida albicans. The data set is described as follows: Antifungal activity against Candida albicans 604M assessed as reduction in fungal growth incubated for 24 hrs by CLSI based serial microbroth dilution method. The data set is classed as functional. In general terms: In broth dilution the organism is exposed to a series of concentrations in liquid medium.

Data set [3] has as its system Candida parapsilosis. The data set is described as follows: Antifungal activity against Candida parapsilosis ATCC 22019 assessed as reduction in fungal growth incubated for 24 hrs by CLSI based serial microbroth dilution method. Format: functional. Particulars: Lodderomyces parapsilosis.
Data set [4] concerns Pichia kudriavzevii. The experiment in a line: Antifungal activity against Candida krusei 432M assessed as reduction in fungal growth incubated for 48 hrs by CLSI based serial microbroth dilution method. The data set is classed as functional.
Data set [5] relates to Nakaseomyces glabratus. The experiment in a line: Antifungal activity against Candida glabrata 61L assessed as reduction in fungal growth incubated for 24 hrs by CLSI based serial microbroth dilution method. The data set is classed as functional.
Data set [6] has as its system Trichophyton rubrum. The experiment in a line: Antifungal activity against Trichophyton rubrum 2002 assessed as reduction in fungal growth incubated for 48 hrs by CLSI based serial microbroth dilution method. The data set is classed as functional.
Data set [7] concerns Nakaseomyces glabratus. The data set is described as follows: Antifungal activity against Candida glabrata 61L assessed as reduction in fungal growth incubated for 48 hrs by CLSI based serial microbroth dilution method. The data set is classed as functional.
The subject of data set [8] is Candida albicans. The data set is described as follows: Antifungal activity against Candida albicans CBS 8837 assessed as reduction in fungal growth incubated for 24 hrs by CLSI based serial microbroth dilution method. The data set is classed as functional.
The test system of data set [9] is Candida albicans. The data set is described as follows: Antifungal activity against Candida albicans 8R assessed as reduction in fungal growth incubated for 24 hrs by CLSI based serial microbroth dilution method. The data set is classed as functional.
Data set [10] deals with Cryptococcus neoformans. The data set is described as follows: Antifungal activity against Cryptococcus neoformans assessed as reduction in fungal growth incubated for 24 hrs by CLSI based serial microbroth dilution method. Format: functional.
The test system of data set [11] is Cyberlindnera jadinii. The experiment in a line: Antifungal activity against Candida utilis 84 assessed as reduction in fungal growth incubated for 24 hrs by CLSI based serial microbroth dilution method. Format: functional. Particulars: Williopsis jadinii.
In data set [12] the test system is Candida albicans. The experiment in a line: Antifungal activity against Candida albicans CBS 8837 assessed as reduction in fungal growth incubated for 48 hrs by CLSI based serial microbroth dilution method. The data set is classed as functional.
The subject of data set [13] is Candida albicans. The data set is described as follows: Antifungal activity against Candida albicans ATCC 24433 assessed as reduction in fungal growth incubated for 24 hrs by CLSI based serial microbroth dilution method. Format: functional.
For data set [14], the system named is Trichophyton rubrum. The data set is described as follows: Antifungal activity against Trichophyton rubrum 2002 assessed as reduction in fungal growth incubated for 24 hrs by CLSI based serial microbroth dilution method. The data set is classed as functional.
Data set [15] relates to Pichia kudriavzevii. The data set is described as follows: Antifungal activity against Candida krusei 432M assessed as reduction in fungal growth incubated for 24 hrs by CLSI based serial microbroth dilution method. Format: functional.
Data set [16] concerns Candida tropicalis. The data set is described as follows: Antifungal activity against Candida tropicalis 3019 assessed as reduction in fungal growth incubated for 24 hrs by CLSI based serial microbroth dilution method. Format: functional.
For data set [17], the system named is Cryptococcus neoformans. The experiment in a line: Antifungal activity against Cryptococcus neoformans assessed as reduction in fungal growth incubated for 48 hrs by CLSI based serial microbroth dilution method. Format: functional.
For data set [18], the system named is Microsporum canis. The data set is described as follows: Antifungal activity against Microsporum canis B-200 assessed as reduction in fungal growth incubated for 48 hrs by CLSI based serial microbroth dilution method. Format: functional.
The subject of data set [19] is Aspergillus niger. The data set is described as follows: Antifungal activity against Aspergillus niger 37a assessed as reduction in fungal growth incubated for 48 hrs by CLSI based serial microbroth dilution method. Format: functional.
Data set [20] has as its system Candida albicans. The data set is described as follows: Antifungal activity against Candida albicans ATCC 24433 assessed as reduction in fungal growth incubated for 48 hrs by CLSI based serial microbroth dilution method. The data set is classed as functional.
Data set [21] has as its system Candida parapsilosis. The experiment in a line: Antifungal activity against Candida parapsilosis ATCC 22019 assessed as reduction in fungal growth incubated for 48 hrs by CLSI based serial microbroth dilution method. The data set is classed as functional. Particulars: Lodderomyces parapsilosis.
Data set [22] concerns Cyberlindnera jadinii. The experiment in a line: Antifungal activity against Candida utilis 84 assessed as reduction in fungal growth incubated for 48 hrs by CLSI based serial microbroth dilution method. Format: functional. Particulars: Williopsis jadinii.
For data set [23], the system named is Candida albicans. The experiment in a line: Antifungal activity against Candida albicans 604M assessed as reduction in fungal growth incubated for 48 hrs by CLSI based serial microbroth dilution method. The data set is classed as functional.
For data set [24], the system named is Microsporum canis. The experiment in a line: Antifungal activity against Microsporum canis B-200 assessed as reduction in fungal growth incubated for 24 hrs by CLSI based serial microbroth dilution method. The data set is classed as functional.
Data set [25] deals with Aspergillus niger. The data set is described as follows: Antifungal activity against Aspergillus niger 37a assessed as reduction in fungal growth incubated for 24 hrs by CLSI based serial microbroth dilution method. Format: functional.
For data set [26], the system named is Candida albicans. The data set is described as follows: Antifungal activity against Candida albicans 8R assessed as reduction in fungal growth incubated for 48 hrs by CLSI based serial microbroth dilution method. The data set is classed as functional.
The test system of data set [27] is Candida tropicalis. The experiment in a line: Antifungal activity against Candida tropicalis 3019 assessed as reduction in fungal growth incubated for 48 hrs by CLSI based serial microbroth dilution method. The data set is classed as functional.

Structures are written as SMILES. Converted amounts (≈) assume the structure as drawn.

For orientation: logD means lipophilicity at a set pH, counting ionised and neutral species. High values mean higher lipophilicity, low ones lower lipophilicity. As usually defined, the MIC is the lowest concentration that inhibits growth of the organism.

Consider `COc1ccccc1-n1c(=S)sc2c(=O)n(CC(O)CN3CCN(CC(O)(Cn4cncn4)c4ccc(F)cc4F)CC3)cnc21` (stereo not drawn), for which the logD in [1] came out at 2.91.

As for `O=c1c2sc(=S)n(-c3ccc(F)cc3)c2ncn1CC(O)(Cn1cncn1)c1ccc(F)cc1F` (stereo not drawn), in data set [1], the log distribution coefficient (logD) was determined as 0.47.

For the compound `Cc1ccc(-n2c(=S)sc3c(=O)n(CCN4CCN(CC(O)(Cn5cncn5)c5ccc(F)cc5F)CC4)cnc32)cc1` (stereo not drawn), the minimal inhibitory concentration (MIC) was 16 µg/mL (≈ 25.6 µM) in data set [2]; 0.5 µg/mL (≈ 0.8 µM) in data set [3]; 32 µg/mL (≈ 51.2 µM) in data set [4]; 4 µg/mL (≈ 6.4 µM) in [5]; 32 µg/mL (≈ 51.2 µM) in [6]; 32 µg/mL (≈ 51.2 µM) in [7]. Further, the MIC in data set [8] is 16 µg/mL (≈ 25.6 µM); in data set [9], 32 µg/mL (≈ 51.2 µM); in data set [10] it was 32 µg/mL (≈ 51.2 µM); in data set [11], 2 µg/mL (≈ 3.2 µM); in [12], 32 µg/mL (≈ 51.2 µM); in [13] it was 8 µg/mL (≈ 12.8 µM). In addition, the minimal inhibitory concentration (MIC) stood at 32 µg/mL (≈ 51.2 µM) in data set [14]; 16 µg/mL (≈ 25.6 µM) in data set [15]; 4 µg/mL (≈ 6.4 µM) in [16]; 32 µg/mL (≈ 51.2 µM) in data set [17]; 32 µg/mL (≈ 51.2 µM) in data set [18]; 32 µg/mL (≈ 51.2 µM) in data set [19]. For the same compound, the MIC in [20] is 16 µg/mL (≈ 25.6 µM); in [21] it was 0.5 µg/mL (≈ 0.8 µM); in data set [22], 4 µg/mL (≈ 6.4 µM); in data set [23] it was 32 µg/mL (≈ 51.2 µM); in data set [24], 32 µg/mL (≈ 51.2 µM); in data set [25], 32 µg/mL (≈ 51.2 µM). Also, the MIC in data set [26] was 32 µg/mL (≈ 51.2 µM); in data set [27], 8 µg/mL (≈ 12.8 µM). This compound came in with a pH-dependent lipophilicity (logD) in data set [1] of 2.9.

For `O=c1c2sc(=S)n(-c3ccc(F)cc3)c2ncn1CCCN1CCN(CC(O)(Cn2cncn2)c2ccc(F)cc2F)CC1` (stereo not drawn), the minimum inhibitory concentration (MIC) in [2] worked out at 32 µg/mL (≈ 49.8 µM); in [3], 0.06 µg/mL (≈ 0.0934 µM); in data set [4], 16 µg/mL (≈ 24.9 µM); in data set [5], 4 µg/mL (≈ 6.22 µM); in data set [6] it was 32 µg/mL (≈ 49.8 µM); in data set [7] it was 32 µg/mL (≈ 49.8 µM). Besides, the MIC in data set [8] amounted to 16 µg/mL (≈ 24.9 µM); in [9] it was 32 µg/mL (≈ 49.8 µM); in [10] it was 16 µg/mL (≈ 24.9 µM); in data set [11], 1 µg/mL (≈ 1.56 µM); in [12], 32 µg/mL (≈ 49.8 µM); in [13], 8 µg/mL (≈ 12.4 µM). Besides, the minimal inhibitory concentration (MIC) is 32 µg/mL (≈ 49.8 µM) in data set [14]; 8 µg/mL (≈ 12.4 µM) in data set [15]; 4 µg/mL (≈ 6.22 µM) in data set [16]; 16 µg/mL (≈ 24.9 µM) in data set [17]; 4 µg/mL (≈ 6.22 µM) in data set [18]; 16 µg/mL (≈ 24.9 µM) in data set [19]. Moreover, the minimum inhibitory concentration (MIC) in data set [20] was found to be 8 µg/mL (≈ 12.4 µM); in [21], 0.125 µg/mL (≈ 0.194 µM); in data set [22], 1 µg/mL (≈ 1.56 µM); in [23], 32 µg/mL (≈ 49.8 µM); in [24], 4 µg/mL (≈ 6.22 µM); in data set [25], 16 µg/mL (≈ 24.9 µM). In addition, the minimal inhibitory concentration (MIC) stood at 32 µg/mL (≈ 49.8 µM) in [26] and 4 µg/mL (≈ 6.22 µM) in [27].

Take `Cc1ccc(-n2c(=S)sc3c(=O)n(CC(=O)NCC(O)(Cn4cncn4)c4ccc(F)cc4F)cnc32)cc1` (stereo not drawn): in [1], the logD worked out at 1.27.

As for `COc1ccccc1-n1c(=S)sc2c(=O)n(CC(O)(Cn3cncn3)c3ccc(F)cc3F)cnc21` (stereo not drawn), the logD in [1] is 1.19.

In the case of `OC(Cn1cncn1)(Cn1cncn1)c1ccc(F)cc1F` [FLUCONAZOLE], the MIC in [2] turned out to be 64 µg/mL (≈ 209 µM); in [3], 2 µg/mL (≈ 6.53 µM); in data set [4] it was 64 µg/mL (≈ 209 µM); in data set [5] it was 8 µg/mL (≈ 26.1 µM); in data set [6], 128 µg/mL (≈ 418 µM); in data set [7], 32 µg/mL (≈ 104 µM). Besides, the minimum inhibitory concentration (MIC) was found to be 128 µg/mL (≈ 418 µM) in [8]; 128 µg/mL (≈ 418 µM) in data set [9]; 16 µg/mL (≈ 52.2 µM) in [10]; 2 µg/mL (≈ 6.53 µM) in data set [11]; 128 µg/mL (≈ 418 µM) in data set [12]; 4 µg/mL (≈ 13.1 µM) in [13]. In addition, the MIC in [14] is 64 µg/mL (≈ 209 µM); in data set [15] it was 32 µg/mL (≈ 104 µM); in data set [16], 1 µg/mL (≈ 3.27 µM); in data set [17], 16 µg/mL (≈ 52.2 µM); in data set [18] it was 32 µg/mL (≈ 104 µM); in [19] it was 64 µg/mL (≈ 209 µM). Also, the minimal inhibitory concentration (MIC) in data set [20] was found to be 4 µg/mL (≈ 13.1 µM); in data set [21], 4 µg/mL (≈ 13.1 µM); in data set [22], 2 µg/mL (≈ 6.53 µM); in data set [23], 64 µg/mL (≈ 209 µM); in data set [24], 32 µg/mL (≈ 104 µM); in [25], 64 µg/mL (≈ 209 µM). Further, the MIC in data set [26] was determined as 128 µg/mL (≈ 418 µM); in [27], 2 µg/mL (≈ 6.53 µM).

Values taken from ChEMBL document CHEMBL4819051, “Synthesis and antifungal activity of new hybrids thiazolo[4,5-d]pyrimidines with (1H-1,2,4)triazole” (Bioorg Med Chem Lett, 2021).
